{
  "source": "patent US12213953B2",
  "about": "“Extended release midodrine hydrochloride compositions and methods of use” (XENAMED CORP., priority 2017, dated 2025)",
  "origin": "cited, not measured here",
  "key": {"[1]": {"conditions": "high water solubility and high permeability"}, "[2]": {"conditions": "oral 10 mg immediate release tablet"}},
  "note": "Structures can show the parent of a compound that is named as a salt.",
  "data": [
    {"smiles": "COc1ccc(OC)c(C(O)CNC(=O)CN)c1", "note": "(racemic) [midodrine HCl, (±)-2-amino-N-[2-(2,5-dimethoxyphenyl)-2-hydroxyethyl]acetamide monohydrochloride]", "values": [
      {"measurement": "BCS classification", "setting": "[1]", "result": "BCS Class I"}
    ]},
    {"smiles": "COc1ccc(OC)c(C(O)CN)c1", "note": "(centres unmarked) [desglymidodrine]", "values": [
      {"measurement": "effect of food on bioavailability of desglymidodrine", "setting": "in vivo", "result": "not affected by food"},
      {"measurement": "first peak blood concentration of desglymidodrine", "setting": "[2]", "result": "about 10 ng/mL"}
    ]},
    {"smiles": "COc1ccc(OC)c(C(O)CNC(=O)CN)c1", "note": "(centres unmarked) [midodrine]", "values": [
      {"measurement": "half-life of midodrine", "setting": "[2]", "result": "approximately 25 minutes"},
      {"measurement": "time to peak plasma levels of midodrine", "setting": "[2]", "result": "about 30 minutes"}
    ]}
  ]
}
